Experimental data from ChEMBL document CHEMBL1137013, “Discovery of (2R)-2-(3-{3-[(4-Methoxyphenyl)carbonyl]-2-methyl-6-(trifluoromethoxy)-1H-indol-1-yl}phenoxy)butanoic acid (MK-0533): a novel selective peroxisome proliferator-activated receptor gamma modulator for the treatment of type 2 diabetes mellitus with a reduced potential to increase plasma …” (J Med Chem, 2009).
Activity calls are given as the source filed them. The rule behind the calls is not given here.

Key:
Plasma = assay: Protein binding in rat plasma assessed per mg of protein; format: ADME, cell-free
[1] = target: T1, Peroxisome proliferator-activated receptor alpha (Homo sapiens, UniProt Q07869); assay: Displacement of [3H2]nTZD3 from human recombinant GST-fused PPARalpha expressed in Escherichia coli by scintillation proximity assay
T1 sequence (Q07869 whole entry): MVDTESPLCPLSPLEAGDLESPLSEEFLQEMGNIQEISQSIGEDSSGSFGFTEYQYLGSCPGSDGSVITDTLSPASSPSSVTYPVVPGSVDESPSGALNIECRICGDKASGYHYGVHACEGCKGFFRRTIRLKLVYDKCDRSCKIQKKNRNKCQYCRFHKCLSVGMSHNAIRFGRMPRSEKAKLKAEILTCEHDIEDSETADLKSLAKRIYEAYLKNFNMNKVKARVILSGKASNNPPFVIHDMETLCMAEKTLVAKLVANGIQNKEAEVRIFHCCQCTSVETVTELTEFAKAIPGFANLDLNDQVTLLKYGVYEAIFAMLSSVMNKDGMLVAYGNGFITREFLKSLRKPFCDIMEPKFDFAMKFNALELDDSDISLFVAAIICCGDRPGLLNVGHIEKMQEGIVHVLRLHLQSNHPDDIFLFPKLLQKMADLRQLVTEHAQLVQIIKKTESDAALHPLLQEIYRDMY

[2] = target: T2, Peroxisome proliferator-activated receptor delta (Homo sapiens) (UniProt Q03181); assay: Displacement of [3H2]nTZD4 from human recombinant GST-fused PPARdelta expressed in Escherichia coli at 10 uM by scintillation proximity assay
T2 sequence (whole entry): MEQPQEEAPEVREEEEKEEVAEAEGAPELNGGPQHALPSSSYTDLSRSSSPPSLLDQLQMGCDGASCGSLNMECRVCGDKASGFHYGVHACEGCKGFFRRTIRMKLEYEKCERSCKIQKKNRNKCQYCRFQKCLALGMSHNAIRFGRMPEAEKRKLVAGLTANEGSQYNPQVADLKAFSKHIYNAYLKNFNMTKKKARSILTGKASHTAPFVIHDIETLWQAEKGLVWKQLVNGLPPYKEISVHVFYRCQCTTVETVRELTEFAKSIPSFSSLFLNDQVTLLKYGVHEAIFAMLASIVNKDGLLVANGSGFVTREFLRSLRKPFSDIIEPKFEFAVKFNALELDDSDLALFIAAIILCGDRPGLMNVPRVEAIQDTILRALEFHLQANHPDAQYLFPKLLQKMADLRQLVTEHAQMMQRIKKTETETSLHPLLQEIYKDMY

[3] = target: T3, Peroxisome proliferator-activated receptor alpha (Homo sapiens) (UniProt Q07869); assay: Agonist activity at human recombinant PPARalpha expressed in COS1 cells coexpressing GAL4 assessed as transcriptional activity at 3000 nM after 48 hrs by luciferase reporter gene assay; format: functional, cell-based; details: COS-1
T3 sequence (whole entry): T1 sequence (Q07869 whole entry)

Cricetinae = assay: Agonist activity at hamster PPARalpha at 3000 nM; format: functional
[4] = Agonist activity at hamster PPARalpha; format: functional, Cricetinae; details: read-out: EC50
[5] = target: T4, Peroxisome proliferator-activated receptor alpha (Canis lupus familiaris, UniProt Q95N78); assay: Agonist activity at dog PPARalpha; format: functional; details: read-out: EC50
T4 sequence (Q95N78 whole entry): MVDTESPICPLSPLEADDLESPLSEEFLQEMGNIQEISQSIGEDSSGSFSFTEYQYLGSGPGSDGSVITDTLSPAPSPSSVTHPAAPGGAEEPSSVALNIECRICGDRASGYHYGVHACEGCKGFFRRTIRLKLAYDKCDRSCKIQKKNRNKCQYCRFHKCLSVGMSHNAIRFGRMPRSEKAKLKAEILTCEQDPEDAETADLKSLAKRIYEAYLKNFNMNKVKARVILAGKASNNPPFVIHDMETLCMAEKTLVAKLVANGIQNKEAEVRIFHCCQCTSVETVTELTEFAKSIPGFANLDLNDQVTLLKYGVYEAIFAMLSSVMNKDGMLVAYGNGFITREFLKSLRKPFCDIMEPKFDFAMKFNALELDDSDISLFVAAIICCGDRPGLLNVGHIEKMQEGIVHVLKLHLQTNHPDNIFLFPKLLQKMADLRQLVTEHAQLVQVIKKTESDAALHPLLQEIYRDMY

[6] = Terminal half life in rat; format: ADME, organism-based; details: in vivo, read-out: beta t1/2 (converted)
[7] = Cmax in rat; format: ADME, organism-based; details: in vivo
[8] = Oral bioavailability in dog; format: ADME, organism-based, Canis lupus familiaris; details: in vivo
[9] = Plasma clearance in dog; format: ADME, organism-based, Canis lupus familiaris
[10] = Terminal half life in dog; format: ADME, organism-based, Canis lupus familiaris; details: in vivo, read-out: beta t1/2 (converted)
[11] = Cmax in dog; format: ADME, organism-based, Canis lupus familiaris; details: in vivo
[12] = Plasma clearance in monkey; format: ADME, organism-based, Macaca mulatta; details: rhesus monkey
[13] = Volume of distribution at steady state in monkey; format: ADME, organism-based, Macaca mulatta; details: rhesus monkey, in vivo; read-out: Vdss
Mus musculus = assay: Antihyperglycemic activity in db/db mouse assessed as reduction in blood glucose level at 30 mg/kg, po administered once daily for 11 days; format: functional; design: scale not given: the % may be the effect or the level left
[14] = AUC in db/db mouse at 30 mg/kg, po administered once daily for 11 days; format: ADME, organism-based; design: dose 30 mg/kg, route oral; details: plasma
[15] = AUC in obese insulin-resistant Zucker fa/fa rat at 100 mg/kg, po once daily for 7 days; format: ADME, organism-based; design: dose 100 mg/kg, route oral; details: plasma
[16] = AUC in obese insulin-resistant Zucker fa/fa rat at 3 mg/kg, po once daily for 7 days; format: ADME, organism-based; design: dose 3 mg/kg, route oral; details: plasma
[17] = AUC in obese insulin-resistant Zucker fa/fa rat at 150 mg/kg, po once daily for 7 days; format: ADME, organism-based; design: dose 150 mg/kg, route oral; details: plasma
Rattus norvegicus [18] = assay: Toxicity in obese insulin-resistant Zucker fa/fa rat assessed as increase in plasma volume at 30 mg/kg, po once daily for 7 days by Evans blue dye dilution technique; format: organism-based; design: dose 30 mg/kg, route oral; details: in vivo, 168 h
Rattus norvegicus [19] = assay: Toxicity in obese insulin-resistant Zucker fa/fa rat assessed as increase in heart weight volume at 3 to 150 mg/kg, po once daily for 7 days; format: organism-based; design: dose 3-150 mg/kg, route oral; details: in vivo, 168 h
[20] = Inhibition of CYP450; format: ADME
[21] = target: T5, Peroxisome proliferator-activated receptor gamma (Homo sapiens, UniProt P37231)
T5 sequence (P37231 whole entry): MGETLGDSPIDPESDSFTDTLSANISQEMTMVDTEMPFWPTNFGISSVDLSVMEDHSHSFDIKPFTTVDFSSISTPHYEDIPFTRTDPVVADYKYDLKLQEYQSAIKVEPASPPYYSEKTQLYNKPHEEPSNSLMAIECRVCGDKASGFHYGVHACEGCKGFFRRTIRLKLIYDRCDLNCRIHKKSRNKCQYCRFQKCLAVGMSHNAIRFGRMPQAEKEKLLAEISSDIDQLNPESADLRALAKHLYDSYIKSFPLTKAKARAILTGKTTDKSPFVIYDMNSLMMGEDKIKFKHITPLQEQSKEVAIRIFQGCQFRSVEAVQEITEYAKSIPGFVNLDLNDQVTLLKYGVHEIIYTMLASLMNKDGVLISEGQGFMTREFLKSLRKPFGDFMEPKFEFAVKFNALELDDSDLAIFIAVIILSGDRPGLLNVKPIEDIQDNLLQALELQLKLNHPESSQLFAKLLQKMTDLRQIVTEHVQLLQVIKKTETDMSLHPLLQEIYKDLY
Description: Agonist activity at human recombinant PPARgamma expressed in COS1 cells co-expressing GAL4 assessed as transcriptional activity after 48 hrs by luciferase reporter gene assay

With `CC[C@@H](Oc1cccc(-n2c(C)c(C(=O)c3ccc(OC)cc3)c3ccc(OC(F)(F)F)cc32)c1)C(=O)O` [MK-0533] the PPB (Plasma) was under 10 pmol, the IC50 [1] was over 50000 nM and the Activity [2] was “inactive”. It also gave an Activity [3] of 33%, an Activity (Cricetinae) of 52% and an EC50 [4] of 330 nM. The EC50 [5] was 370 nM, the half-life [6] was 1.6 h and the Cmax [7] was 1000 nM. It also gave a bioavailability [8] of 59%, a clearance [9] of 7.5 mL/min/kg and a half-life [10] of 3.6 h. The Cmax [11] was 2400 nM, the clearance [12] was 10.1 mL/min/kg and the Vd [13] was 0.7 L/kg. The Activity (Mus musculus) was 83%, the AUC at 264 h [14] was 60 µM·h and the AUC at 168 h [15] was 1480 µM·h. The AUC at 168 h [16] was 6 µM·h, the AUC at 168 h [17] was 4520 µM·h and the Activity (Rattus norvegicus [18]) was “Non-toxic”. For the same compound, the Activity (Rattus norvegicus [19]) was “Non-toxic”, the INH [20] was over 10 µM and the EC50 [21] was 2 nM.
